For series [1], the system named is injured bovine cartilage explants.
Source text: Bovine articular cartilage was obtained from the knee joints of adult, eighteen to twenty-four month old animals and processed within twenty-four hours after sacrifice. […] Care was taken to consistently prepare the same thickness of bone layer. The cartilage-on-bone specimens were subjected to an impact. […] After each impact, the cartilage area with a visible indent of ˜0.5-1 mm in the center was punched out with a 3 mm diameter puncher and immediately soaked in PBS with 1× Antibiotic-Antimycotic. Throughout the impact procedure and preparation of specimens, the cartilage was kept moist using PBS to prevent tissue dehydration. The cartilage discs were sterilized through 3× one hour wash in PBS with 10× Antibiotic-Antimycotic followed by 1×0.5 hour wash in PBS with 1× Antibiotic-Antimycotic. After wash, the specimens were incubated with conditioned medium harvested from peripheral blood mononuclear cells (PBMC) stimulated with or without LPS and at the same time, were treated with or without compounds for five days at 37° C., 5% CO2. Culture medium was collected for GAG release, NO and PGE2 assays, and assessment for cytotoxicity.
Cell death was assessed by measuring the amount of lactate dehydrogenase (LDH) in the culture supernatant. 10-20 μl of culture medium was incubated with the reaction mixture from the Cytotoxicity Detection Kit (LDH, Roche), as described in Example III above. The amount of formazan formed was measured at 500 nm, which was proportional to the number of dead cells. Since no purified LDH was available for a standard curve at each measurement, an LDH level for 100% dead cells was measured in each experiment. The lysate for the dead cells was prepared as follows: Chondrocytes were enzymatically isolated as described earlier and about 0.1 million cells that were equivalent to the number of cells contained in a 3-mm punch of fresh cartilage explant were lysed in 1 ml of PBS with 1% Triton-100. Approximately 10-20 μl of the lysate was used in the assay as killed cell control. […]
The target of the next series is JNK2 (Homo sapiens, UniProt P45984). Description: JNK2 inhibition. The series is classed as biochemical. As to conditions: read-out: inhibitor of JNK2, IC50.
Series [2] concerns NO production in injured bovine cartilage explants. Description: Drop tower model: NO production in injured cartilage explants. The series is classed as cell-based. As to conditions: for inhibition at 10 µM: Bos taurus, injured cartilage explants; for effect on NO production (in words): drop tower model, cocktail of cytokines. On the procedure: (§1) In the second method, the explants were cultured at 37° C., 5% CO2 either in stimulated or non-stimulated conditioned medium as described above or in defined medium containing DMEM supplemented with 1% FCS, 1× insulin-transferrin-sodium selenite media supplement and Antibiotics-Antimycotics in the presence or absence of a cocktail of cytokines containing 10 ng/ml of IL-1β, 100 ng/ml of TNFα and 5 ng/ml of IFN-γ. The compounds were solubilized in H2O, Ethanol or DMSO (10^−2 M) according to suppliers' instructions and further diluted with either conditioned medium stimulated with or without LPS to the required concentrations. DMSO concentrations in the culture media never exceeded 1%. This concentration of DMSO has no effect on cartilage proteoglycan metabolism in response to cytokines. The injured and noninjured cartilage explants were treated with compound-containing medium for three to five days. The specimens were first treated with compounds at desired concentrations at 37° C. for one hour and then incubated for three to five days in the absence or presence of the cocktail of cytokines. At the end of the incubation, media and cartilage samples were harvested and frozen for further analysis.
Nitrate/Nitrite was measured using the Griess reaction (Green L. C. et al., “Analysis of Nitrate, Nitrite, and [15N]nitrate in Biological Fluids,” Anal. Biochem. 126: 131-138 (1982)) with a Nitrate/Nitrite Colorimetric Assay Kit (Cayman Chemicals), as described in Example III above.

The test system of series [3] is annulus fibrosus and nucleus pulposus cells from bovine caudal discs treated with IL-1β. As to the kind of experiment: 3D in vitro disc cell model: GAG (DMMB). The series is classed as cell-based. The text has this: (§2) Three-dimensional in vitro annulus fibrosis (AF) and nucleus pulposus (NP) models were established to investigate proteoglycan modulation and changes in gene expression in response to inflammatory cytokines such as interleukin-1 (e.g., IL-1β) and potential therapeutic agents such as growth and differentiation factor (GDF-5), and p38 MAP kinase inhibitors. AF and NP cells from bovine caudal discs were isolated by enzymatic digestion and seeded (2×10^6 cells/cm^2) onto Millipore CM filters coated with Collagen Type II and cultured in DMEM/20% heat-inactivated FBS, 100 ug/ml ascorbic acid and 5 ng/ml TGFβ1. […] Results were evaluated by histology (Tol. Blue staining was used to observe matrix production). Dimethylmethylene blue (DMMB) was used to detect sulphated glycosaminoglycans in a GAG/DNA assay. Taqman analysis was performed on aggrecans (AGG), collagen type 1 (col-1), collagen type 2 (col-2), and MMP 3, MMP 9 and MMP 13. In FIGS. 19A-C and 20A-C, annulus fibrosus and nucleus pulposus cells from bovine caudal discs were isolated by enzymatic digestion and seeded (2×10^6 cells/cm2) onto Millipore CM filters coated with Collagen Type II and cultured in DMEM/20% heat-inactivated FBS/100 ug/ml ascorbic acid and 5 ng/ml TGF-β1.

For series [4], the system named is PGE2 synthesis in injured bovine cartilage explants. As to the kind of experiment: Drop tower model: PGE2 synthesis in injured cartilage explants. As to conditions: for inhibition at 1 µM / inhibition at 10 µM: Bos taurus, injured cartilage explants; for effect on PGE2 synthesis (in words): drop tower model, cocktail of cytokines. The series is classed as cell-based. On the procedure: as §1
PGE2 was measured with STAT-Prostaglandin E2 EIA ELISA kit (Cayman Biochemicals), as described in Example III above. The antibody-PGE2 complex binds to a goat polyclonal anti-mouse IgG that has been previously attached to the well. After washing to remove any unbound reagents, para-nitrophenyl phosphate (pNPP) was added to the well. The product of this enzymatic reaction absorbs strongly at 412 nm. Because of the large range in response to IL-1β and other cytokines, PGE2 values were converted to log scale prior to doing t-tests.

Series [5] relates to LPS-induced TNF in human peripheral blood mononuclear cells (hPBMC). Description: LPS-induced TNF in hPBMC. The note with it: read-out: inhibitor of LPS-induced TNF hPBMC, IC50. The series is classed as cell-based.
Another series deals with COX1 (Homo sapiens, UniProt P23219). Description: COX1 inhibition. The series is classed as biochemical. The note with it: read-out: inhibitor of COX1, IC50.
Sequence of COX1 (P23219 24-599): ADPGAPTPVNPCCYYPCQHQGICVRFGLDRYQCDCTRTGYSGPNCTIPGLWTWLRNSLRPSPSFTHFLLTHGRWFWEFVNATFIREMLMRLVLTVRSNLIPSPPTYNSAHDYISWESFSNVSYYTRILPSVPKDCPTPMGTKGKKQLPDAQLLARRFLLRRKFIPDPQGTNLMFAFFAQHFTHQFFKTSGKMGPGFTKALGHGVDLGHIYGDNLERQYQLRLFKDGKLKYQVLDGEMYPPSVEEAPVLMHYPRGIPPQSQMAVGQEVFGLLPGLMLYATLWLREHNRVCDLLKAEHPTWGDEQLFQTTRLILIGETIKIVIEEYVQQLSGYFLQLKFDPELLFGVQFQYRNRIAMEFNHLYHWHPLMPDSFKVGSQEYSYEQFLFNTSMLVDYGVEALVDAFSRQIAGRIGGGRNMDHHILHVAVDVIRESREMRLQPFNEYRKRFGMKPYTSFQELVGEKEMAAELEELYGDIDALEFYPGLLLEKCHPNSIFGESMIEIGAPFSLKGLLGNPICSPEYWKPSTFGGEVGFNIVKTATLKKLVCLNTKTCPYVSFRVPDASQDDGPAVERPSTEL
The target of the next series is p38a MAP kinase (Homo sapiens, UniProt Q16539). As to the kind of experiment: Binding to p38a MAP kinase. The note with it: read-out: binds p38a MAP kinase, Kd.
Sequence of p38a MAP kinase (Q16539 whole entry): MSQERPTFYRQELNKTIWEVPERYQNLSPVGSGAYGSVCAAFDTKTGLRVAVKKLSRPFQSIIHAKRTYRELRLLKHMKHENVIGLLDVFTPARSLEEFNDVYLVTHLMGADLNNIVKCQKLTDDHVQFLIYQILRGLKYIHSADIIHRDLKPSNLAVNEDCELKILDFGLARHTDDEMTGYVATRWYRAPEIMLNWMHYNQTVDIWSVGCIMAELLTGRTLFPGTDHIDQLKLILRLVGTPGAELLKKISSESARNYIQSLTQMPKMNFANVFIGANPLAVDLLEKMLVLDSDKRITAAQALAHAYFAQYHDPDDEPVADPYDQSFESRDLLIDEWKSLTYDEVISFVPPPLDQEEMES
The test system of series [6] is aggrecan and collagen type 2 mRNA in bovine AF and NP cells. Description: 3D in vitro disc cell model: Taqman gene expression. As to conditions: 10 ng/ml IL-1β; inhibitor 1 μM, rhGDF-5 200 ng/ml. In kind it is cell-based.
Source text: as §2
(In general: Quantitative PCR measures a nucleic acid by following its amplification.)

The test system of series [7] is TNFα in human whole blood. Description: TNFα inhibition, human whole blood assay (h-WBA / HWB). In kind it is cell-based.
A further series relates to JNK. Description: JNK inhibition. The note with it: read-out: inhibitor of JNK, IC50. In kind it is biochemical.
The target in series [8] is inactivated p38 MAP kinase (Homo sapiens, UniProt Q16539). Description: Binding to inactivated p38 MAP kinase. As to conditions: read-out: binds to inactivated p38 MAP kinase, Kd.
Sequence of inactivated p38 MAP kinase (Q16539 whole entry): as above
The test system of series [9] is LPS-induced IL-1 in hPBMC. As to the kind of experiment: LPS-induced IL-1 in hPBMC. In kind it is cell-based, human. As to conditions: read-out: inhibitor of LPS-induced IL-1 in hPBMC, IC50.
For a further series, the target named is CYP2C9 (Homo sapiens, UniProt P11712). Description: CYP2C9 inhibition. The series is classed as in vitro ADME.
Sequence of CYP2C9 (P11712 whole entry): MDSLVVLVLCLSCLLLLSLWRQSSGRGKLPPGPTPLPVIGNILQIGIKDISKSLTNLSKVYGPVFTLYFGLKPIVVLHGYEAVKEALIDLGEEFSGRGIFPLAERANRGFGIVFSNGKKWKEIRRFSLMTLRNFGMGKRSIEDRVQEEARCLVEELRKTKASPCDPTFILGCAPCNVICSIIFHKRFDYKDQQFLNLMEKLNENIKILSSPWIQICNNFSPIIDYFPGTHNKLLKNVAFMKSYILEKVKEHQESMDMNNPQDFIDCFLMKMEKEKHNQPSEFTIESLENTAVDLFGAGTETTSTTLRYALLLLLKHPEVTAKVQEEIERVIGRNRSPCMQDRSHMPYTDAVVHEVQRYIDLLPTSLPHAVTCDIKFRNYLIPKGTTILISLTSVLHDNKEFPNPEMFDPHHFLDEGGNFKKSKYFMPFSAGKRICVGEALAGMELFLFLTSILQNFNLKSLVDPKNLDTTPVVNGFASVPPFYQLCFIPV
The next series can be described thus: Rat PK. The series is classed as in vivo.
A further series can be described thus: Monkey PK. As to conditions: in vivo, female monkey.
The test system of another series is 6 CYP450. As to the kind of experiment: Inhibition of 6 CYP450. In kind it is in vitro ADME.

Like-named read-outs stand apart in the source and are kept apart here. Bounds are passed on as bounds.

Sequence of JNK2 (P45984 whole entry, species assumed): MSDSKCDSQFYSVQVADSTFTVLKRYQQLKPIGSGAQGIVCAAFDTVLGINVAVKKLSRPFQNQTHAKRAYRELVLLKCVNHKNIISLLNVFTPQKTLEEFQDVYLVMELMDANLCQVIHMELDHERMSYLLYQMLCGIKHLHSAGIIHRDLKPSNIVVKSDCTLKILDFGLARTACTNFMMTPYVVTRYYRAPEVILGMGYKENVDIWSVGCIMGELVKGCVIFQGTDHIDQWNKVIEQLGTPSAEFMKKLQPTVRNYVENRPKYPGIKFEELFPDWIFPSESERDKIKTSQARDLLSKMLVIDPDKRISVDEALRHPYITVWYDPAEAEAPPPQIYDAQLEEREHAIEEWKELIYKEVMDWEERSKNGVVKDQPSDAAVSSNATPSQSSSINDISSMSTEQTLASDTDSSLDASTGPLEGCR

Turning to `CC(=O)Oc1cccc2c1C(=O)c1c(OC(C)=O)cc(C(=O)O)cc1C2=O` [Diacerein, reference compound], the “cytotoxicity, LDH (in words)” value in series [1] is on record as “tolerant”.
What is called IC50 is the concentration that gives 50% inhibition. For orientation: inhibition means the change of the read-out against control, counted positive when it falls. The term Kd denotes the constant that tells how readily two partners part at equilibrium. As for `OCCC#Cc1nc(-c2ccc(F)cc2)c(-c2ccncc2)n1CCCc1ccccc1` [JNJ 3026582 (RWJ 67657), 4-[4-(4-fluorophenyl)-1-(3-phenylpropyl)-5-(4-pyridinyl)-1H-imidazol-2-yl]-3-butyn-1-ol], the IC50 was 0.08 µM at JNK2; 0.004 µM in [5] (Homo sapiens, PBMC); greater than 10 µM on COX1. Also, the inhibition at 10 µM in series [2] turned out to be 66%; in series [4] it was 90%. Besides, the “effect on NO production (in words)” value in series [2] is “dose-dependently inhibited”. Besides, the “amount of GAG in the tissue (in words)” value in series [3] (10 ng/ml IL-1β, inhibitor 1 μM, rhGDF-5 200 ng/ml) is reported as “restored”. Besides, the “GAG release (in words)” value in series [3] (Example V, IL-1β-treated disc cells) is on record as “prevented GAG release in a dose dependent manner”. This molecule came in with an inhibition at 1 µM in [4] of 33%. Also, the “effect on PGE2 synthesis (in words)” value in series [4] is reported as “dose-dependently inhibited”. Further, the Kd at p38a MAP kinase worked out at 0.009 µM. Besides, in series [6], the “gene expression of Agg and Col 2 (in words)” value is given as “restored”.
For the molecule `C[C@H](Nc1nccc(-c2c(-c3ccc(F)cc3)nc3nc(N)ccn23)n1)c1ccccc1` [JNJ 7583979 (RWJ 351958)], the IC50 in series [7] (Homo sapiens, read-out: inhibitor of TNF human whole blood (HWB), IC50) was 0.005 µM; on COX1 it was greater than 10 µM; in the series on JNK, 0.012 µM.
Turning to `CC(=O)N1CCN(c2c(-c3ccncc3)c(-c3ccc(F)cc3)c(C#N)n2C)CC1` [JNJ 17089540 (RWJ 669307)], in [2], the “effect on NO production (in words)” value is recorded as “dose-dependently inhibited”. The Kd in [8] was 0.1 µM. Also, in series [4], the “effect on PGE2 synthesis (in words)” value was “dose-dependently inhibited”. In addition, the IC50 in series [5] is 0.22 µM; on COX1 it was greater than 10 µM; in series [9] it was 0.25 µM.
Regarding `CO[C@H]1C[C@@H]2CC[C@@H](C)[C@@](O)(O2)C(=O)C(=O)N2CCCC[C@H]2C(=O)O[C@H]([C@H](C)C[C@@H]2CC[C@@H](O)[C@H](OC)C2)CC(=O)[C@H](C)/C=C(\C)[C@@H](O)[C@@H](OC)C(=O)[C@H](C)C[C@H](C)/C=C/C=C/C=C/1C` [Rapamycin, reference compound], in [1], the “cytotoxicity, LDH (in words)” value is reported as “little cytotoxicity”.
The same measure, in the same setting: under `O=C(O)c1cc(O)c2c(c1)C(=O)c1cccc(O)c1C2=O` [Rhein, reference compound] stands “tolerant”.
By EC50 is commonly meant the concentration at which the effect is half-maximal. As to `C[C@@H]1CN(Cc2ccc(F)cc2)[C@@H](C)CN1C(=O)c1cc2cc(C(=O)C(=O)N(C)C)[nH]c2cc1Cl` [SCIO-282 (SD 282)], the “effect on NO production (in words)” value in series [2] is listed as “dose-dependently inhibited”. In addition, in [7] (10× diluted, read-out: inhibits TNFα h-WBA (EC50)), the EC50 turned out to be 0.07 µM. Half-maximal inhibition against CYP2C9 (IC50) required 0.5 µM. For the same molecule, the “effect on PGE2 synthesis (in words)” value in series [4] is “dose-dependently inhibited”. Moreover, in the series “Rat PK” (female rat), the “Rat (F) PK, F %” value came out at 46%.
As for `C[C@@H]1CN(Cc2ccc(F)cc2)[C@@H](C)CN1C(=O)c1cc2c(C(=O)C(=O)N(C)C)cn(C)c2cc1Cl` [SCIO-469 (SD 469)], the “effect on NO production (in words)” value in [2] is “inhibited”. Also, the EC50 worked out at 1.6 µM in series [7] (Homo sapiens, 10× diluted, read-out: inhibits TNFα h-WBA (EC50)) and 1.6 µM in [7] (Homo sapiens, Table 2, read-out: TNFα Inhibition h-WBA (EC50)). The bioavailability in the series “Monkey PK” (read-out: Monkey (F) PK, F %) is 12%; in “Rat PK” (in vivo, male rat, read-out: Rat (M) PK, F %), 15%. For the same molecule, the half-life in “Monkey PK” (read-out: Monkey (F) PK, t1/2 (converted)) was 1.3 h; in the series “Rat PK” (in vivo, female rat, read-out: Rat (F) PK, t1/2 (converted)), 1 h; in the series “Rat PK” (in vivo, male rat, read-out: Rat (M) PK, t1/2 (converted)) it was 0.5 h. The IC50 with 6 CYP450 is greater than 1 µM; with 6 CYP450 (human, Table 2), greater than 1 µM. The “effect on PGE2 synthesis (in words)” value in [4] is “inhibited”.
In [2], `COc1ccc(-n2nc(CCC(=O)N(C)O)cc2-c2ccc(Cl)cc2)cc1` [Tepoxalin, reference compound] gave an inhibition at 10 µM of 100%. Also, in series [4], the inhibition at 1 µM was determined as 77% and the inhibition at 10 µM came to 90%.
